Results as given in US11547681B2, “N-acylethanolamide derivatives and uses thereof” (ELIEM THERAPEUTICS, INC., priority 2016, dated 2023).

Columns and labels:
in vitro [1] = settings: male, Beagle, dog, 1 μM
Outline: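 Percent remaining relative to time 0 and half-life (single-phase exponential fit) were derived from LC-MS/MS measurement of the dosed prodrug and its expected drug, PEA. Incubations contained 1 μM test article at 37 °C, were initiated with cofactor cocktail and were sampled up to 60 min.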

in vitro [2] = settings: male, Sprague-Dawley, rat
Outline: (§1)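 Test article (1 μM final) pre-equilibrated with intestinal S9 at 37 °C, then reaction started with cofactor cocktail; sampled at 0, 10, 20, 30 and 60 min and quenched in acidified acetonitrile. Prodrug and released PEA quantified by LC-MS/MS; half-life from single-phase exponential fit of percent remaining versus time 0.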

in vitro [3] = settings: both, human; for microsomal CLint at 1 μM: s9, CLint; for half-life at 1 μM: s9, Half-life
Outline: as §1

## CCCCCCCCCCCCCCCC(=O)NCCOC(=O)CCC(=O)OCC(COC(=O)CCC)OC(=O)CCC (stereo not shown) [Compound I-11]
In vitro [1]; 0 min
  Concentration (μM) of analyte PEA, 0 min: 0.032 µM
In vitro [1]; 10 min
  Concentration (μM) of analyte PEA, 10 min: 0.23 µM
In vitro [1]; 20 min
  Concentration (μM) of analyte PEA, 20 min: 0.38 µM
In vitro [1]; 30 min
  Concentration (μM) of analyte PEA, 30 min: 0.74 µM
In vitro [1]; 60 min
  Concentration (μM) of analyte PEA, 60 min: 0.88 µM
In vitro [1]; s9, 0 h
  % Remaining of Initial (n = 1), 0 min: 100%
In vitro [1]; s9, 10 min
  % Remaining of Initial (n = 1), 10 min: 1.8%
In vitro [1]; s9, 20 min
  % Remaining of Initial (n = 1), 20 min: <1.0%
In vitro [1]; s9, 0.5 h
  % Remaining of Initial (n = 1), 30 min: <1.0%
In vitro [1]; s9, 1 h
  % Remaining of Initial (n = 1), 60 min: <1.0%
In vitro [2]; 0 min, 1 μM
  Concentration (μM) of analyte PEA, 0 min: 0 µM
In vitro [2]; 10 min, 1 μM
  Concentration (μM) of analyte PEA, 10 min: 0.13 µM
In vitro [2]; 20 min, 1 μM
  Concentration (μM) of analyte PEA, 20 min: 0.24 µM
In vitro [2]; 30 min, 1 μM
  Concentration (μM) of analyte PEA, 30 min: 0.35 µM
In vitro [2]; 60 min, 1 μM
  Concentration (μM) of analyte PEA, 60 min: 0.38 µM
In vitro [2]; s9, 0 h, 1 μM
  % Remaining of Initial (n = 1), 0 min: 100%
In vitro [2]; s9, 10 min, 1 μM
  % Remaining of Initial (n = 1), 10 min: 1.4%
In vitro [2]; s9, 20 min, 1 μM
  % Remaining of Initial (n = 1), 20 min: <1.0%
In vitro [2]; s9, 0.5 h, 1 μM
  % Remaining of Initial (n = 1), 30 min: <1.0%
In vitro [2]; s9, 1 h, 1 μM
  % Remaining of Initial (n = 1), 60 min: <1.0%
In vitro [2]; s9, CLint (mL/min/mg protein)
  microsomal CLint at 1 μM: 425 µL/min/mg
In vitro [2]; s9, Half-life (min)
  half-life at 1 μM: 0.0267 h
In vitro [3]; 0 min, 1 μM
  Concentration (μM) of analyte PEA, 0 min: 0.018 µM
In vitro [3]; 10 min, 1 μM
  Concentration (μM) of analyte PEA, 10 min: 0.13 µM
In vitro [3]; 20 min, 1 μM
  Concentration (μM) of analyte PEA, 20 min: 0.20 µM
In vitro [3]; 30 min, 1 μM
  Concentration (μM) of analyte PEA, 30 min: 0.21 µM
In vitro [3]; 60 min, 1 μM
  Concentration (μM) of analyte PEA, 60 min: 0.18 µM
In vitro [3]; s9, 0 h, 1 μM
  % Remaining of Initial (n = 1), 0 min: 100%
In vitro [3]; s9, 10 min, 1 μM
  % Remaining of Initial (n = 1), 10 min: 4.1%
In vitro [3]; s9, 20 min, 1 μM
  % Remaining of Initial (n = 1), 20 min: 1.2%
In vitro [3]; s9, 0.5 h, 1 μM
  % Remaining of Initial (n = 1), 30 min: <1.0%
In vitro [3]; s9, 1 h, 1 μM
  % Remaining of Initial (n = 1), 60 min: <1.0%

## CCCCC/C=C\C/C=C\CCCCCCCC(=O)OCC(COC(=O)CCC(=O)OCCNC(=O)CCCCCCCCCCCCCCC)OC(=O)CCCCCCC/C=C\C/C=C\CCCCC (stereo not shown) [Compound I-13]
In vitro [1]; 0 min
  Concentration, analyte PEA: 58 nM
In vitro [1]; 10 min
  Concentration, analyte PEA: 95 nM
In vitro [1]; 20 min
  Concentration, analyte PEA: 100 nM
In vitro [1]; 30 min
  Concentration, analyte PEA: 89 nM
In vitro [1]; 60 min
  Concentration, analyte PEA: 170 nM
In vitro [1]; s9, 0 h
  % Remaining of Initial (n = 1): 100%
In vitro [1]; s9, 10 min
  % Remaining of Initial (n = 1): 67%
In vitro [1]; s9, 20 min
  % Remaining of Initial (n = 1): 63%
In vitro [1]; s9, 0.5 h
  % Remaining of Initial (n = 1): 46%
In vitro [1]; s9, 1 h
  % Remaining of Initial (n = 1): 49%
In vitro [2]; 0 min, 1 μM
  Concentration, analyte PEA: 0 nM
In vitro [2]; 10 min, 1 μM
  Concentration, analyte PEA: 20 nM
In vitro [2]; 20 min, 1 μM
  Concentration, analyte PEA: 48 nM
In vitro [2]; 30 min, 1 μM
  Concentration, analyte PEA: 64 nM
In vitro [2]; 60 min, 1 μM
  Concentration, analyte PEA: 92 nM
In vitro [2]; s9, 0 h, 1 μM
  % Remaining of Initial (n = 1): 100%
In vitro [2]; s9, 10 min, 1 μM
  % Remaining of Initial (n = 1): 80%
In vitro [2]; s9, 20 min, 1 μM
  % Remaining of Initial (n = 1): 82%
In vitro [2]; s9, 0.5 h, 1 μM
  % Remaining of Initial (n = 1): 81%
In vitro [2]; s9, 1 h, 1 μM
  % Remaining of Initial (n = 1): 55%
In vitro [2]; s9, CLint
  microsomal CLint at 1 μM: < 11.6 µL/min/mg
In vitro [2]; s9, CLint, calculated (in parentheses)
  microsomal CLint at 1 μM: 8.59 µL/min/mg
In vitro [2]; s9, Half-life
  half-life at 1 μM: > 1 h
In vitro [2]; s9, Half-life, calculated (in parentheses)
  half-life at 1 μM: 1.35 h
In vitro [3]; 0 min, 1 μM
  Concentration, analyte PEA: 0 nM
In vitro [3]; 10 min, 1 μM
  Concentration, analyte PEA: 10 nM
In vitro [3]; 20 min, 1 μM
  Concentration, analyte PEA: 14 nM
In vitro [3]; 30 min, 1 μM
  Concentration, analyte PEA: 18 nM
In vitro [3]; 60 min, 1 μM
  Concentration, analyte PEA: 31 nM
In vitro [3]; s9, 0 h, 1 μM
  % Remaining of Initial (n = 1): 100%
In vitro [3]; s9, 10 min, 1 μM
  % Remaining of Initial (n = 1): 86%
In vitro [3]; s9, 20 min, 1 μM
  % Remaining of Initial (n = 1): 86%
In vitro [3]; s9, 0.5 h, 1 μM
  % Remaining of Initial (n = 1): 86%
In vitro [3]; s9, 1 h, 1 μM
  % Remaining of Initial (n = 1): 59%
In vitro [3]
  microsomal CLint at 1 μM: < 11.6 µL/min/mg
  half-life at 1 μM: > 1 h
In vitro [3]; calculated (in parentheses)
  microsomal CLint at 1 μM: 7.57 µL/min/mg
  half-life at 1 μM: 1.53 h
